For the assay, the system named is Human Embryonic Kidney cells, strain 293A. The assay is described as follows: Transfection of Human Embryonic Kidney cells with CMV-GFP plasmid complexed with SAINT-molecules, GFP expression by FACS. The format is cell-based. To be noted: 293A cells, 12 well plates; 500 ng CMV-GFP plasmid complexed with 3.75 nm SAINT molecules or linker per well; FACS 48 hours after transfection. The source says:
FIG. 1 is the result of Human Embryonic Kidney cells, strain 293A, cultured in 12 well plates and are transfected with 4 combinations of SAINT-molecules (i.e. SAINT-18, SAINT-18 coupled to RGD, a mixture of SAINT-18 and SAINT-18 coupled to RGD, and SAINT-18 linker).
Human Embryonic Kidney cells are difficult to be transfected. When using these cells, main competing transfection methods (of other manufacturers), require several micrograms of plasmid DNA for successful transfection. Combined with SAINT-18, 1 μg (per 12 wells) normally results in a transfection rate above 90%. To be able to visualize the enhancing effect of the targeting moiety SAINT-18-RGD, in this protocol we used a low amount of plasmid DNA (500 ng per 12 wells). The structural formula of SAINT-linker-RGD is depicted in […]. In addition, an RGD-peptide is coupled to the SATA-group of the SAINT-Linker, as described in the present invention. The RGD group is a targeting moiety for the integrin receptor family and is though to increase the transfection efficacy. Human Embryonic Kidney cells, strain 293A, are cultured in 12 well plates and are transfected with 4 combinations of Saint-molecules (i.e. SAINT-18, SAINT-18 coupled to RGD, a mixture of SAINT-18 and SAINT-18 coupled to RGD, and only a linker molecule as a reference). […] 48 hours after transfection GFP expression is measured by FACS analysis. […]

Here are results for one compound from patent US20080085273A1, “VEHICLE FOR THE TRANSPORT OF A CHOSEN MOLECULE TO A CELL” (Synvolux IP B.V., priority 2004, published 2008).

For the compound `CCCCCCCC/C=C\CCCCCCCCC(CCCCNC(=O)C1CCC(CN2C(=O)CC(SCC(=O)NC(=N)NCCCC(C)C(=O)NCC(=O)NC(CC(=O)O)C(=O)O)C2=O)CC1)c1cc[n+](C)cc1.[Cl-]` (stereo not shown) [S18/RGD], the “transfection ability (percentage of GFP positive cells, FIG. 1, result in words)” value is reported as “able to transfect cells”.
